Laboratory results as given in article PMC6315541, “Nile Tilapia Derived Antimicrobial Peptide TP4 Exerts Antineoplastic Activity Through Microtubule Disruption” (Marine Drugs, 2018).

How the values were obtained:
[1] = test system: A549 cells; test: Cell viability (CellTiter-Glo ATP assay) in A549 cells; format: cell-based, human; settings: 24 h; for relative ATP levels (cell viability): CellTiter-Glo ATP assay, luminescence, mean ± SD of three independent assays, n ≥ 5 wells per dose
Method: Figure 6 Loss of cancer-killing ability in TP4 mutants. (A) Cell viability in A549 cells was determined by the adenosine triphosphate (ATP) assay following treatment with varying doses of TP4 and TP4 mutants for 24 h. Multiple wells were analyzed for each assay. Results represent the mean ± SD. Statistical comparisons between groups were performed using two-way ANOVA: a, not significant; b, p < 0.05; d, p < 0.001. Statistical analyses are shown in Supplementary Table S1. (B) Cells were stained for TP4 (WT panel), FITC (MT-1 to MT-6 panels), α-Tubulin, and F-actin. Hoechst33342 was used for nuclei staining. Boxed regions are magnified in the furthest right panels. […] Bar: 20 μm.
The A549 cell line (Bioresource Collection and Research Center (BCRC) 60074) was purchased from the BCRC and cultured according to BCRC recommendations. For the cell viability and transfection assay, 4–5 × 10^3 cells were seeded into the wells of a 96-well plate and cultured overnight. Cells were then treated according to the indicated doses and times. Cell viability was quantified using the CellTiter-Glo® Luminescent Cell Viability Assay kit (ATP assay) (Madison, WI, USA) as previously described. The luminescent signal was measured using a photometer (SpectraMax® i3, Molecular Devices, Wals, Austria).
For the multi-well based assay, cells were plated at least in quadruplicate. Data were collected from independently repeated experiments (N ≥ 3) and were analyzed by Prism5 software (GraphPad Inc., La Jolla, CA, USA). Statistical significance was determined by a two-tailed Student’s t-test or one-way/two-way analysis of variance (ANOVA) with a Bonferroni post hoc test. Differences were considered statistically significant at p < 0.05. […]
Supplementary Table S1. Cellular toxicit y of TP 4 to A549 cells was evaluated b y cell viability. Results of statis tical tests on data in Figu re 6A are shown. Multiple wells were anal yzed for each ex periment (n ≥ 5 wells per do se). Results represent the mean ± SD from three independent assays. Statistical comparisons between mock versus TP4 treatment groups were performed using two -way ANOVA anal ysis with Bonferroni post-hoc test: a, not signi ficant; b, P < 0.05; c, P < 0.01; d, P < 0.001. […]
(A-G) Th e helical projection plot and s tructural model o f TP4 (A) and TP4 variants (MT-1 to MT-6, B-G ). The helical proj ecti on was produced b y an online helical wheel projection program (http://rzlab.ucr.edu/scripts/wheel/wheel.cgi). Amino acid residues are numbered and each amino acid is connected with lines to indicate its relative position along the helix. The hydrophobic residues are shown as diamonds ; h ydrophilic residues are circles. Residues with negative charge are shown as trian gles and positively charged residues are pentagons. Hydrophobicity is color coded. The

[2] = test system: Pure tubulins (microtubule polymerization); test: In vitro tubulin polymerization assay; format: biochemical
Method: To test the models predicted by the molecular docking analysis, TP4 mutants were generated by substitution of Phe1, Ile16, and Arg23 with either Gly or Ala (mutant names and sequences are provided in Figure 5A), and the mutants were analyzed for their interaction with α-Tubulin. The sequence of TP4 is expected to form an α-helix, see Supplementary Figure S1A.
Figure 5 TP4 inhibits microtubule polymerization. (A) Sequences of the TP4 wild type (WT) and mutants. Letters shown in red indicate substituted amino acids. (B,C) Dynamic measurement of the microtubule polymerization. Pure tubulins were assembled in the presence of TP4 (WT), TP4 mutants (MT1-6). H2O, paclitaxel, and nocodazole served as vehicle, positive, and negative controls, respectively.
The Microtubule/Tubulin In Vivo Assay (Cytoskeleton, Inc., Denver, CO, USA) was performed using the “inhibitor condition” provided in the manufacturer’s instructions. Microtubule regrowth was assayed as described previously. Briefly, cells with or without 3 h, 10 μg mL^−1 TP4 treatment were incubated with nocodazole (20 μM) for 6 h at 37 °C. After washing with warm culture medium, cells were incubated for a further 0, 10, or 30 minutes. Fixed cells were stained with the α-Tubulin antibody and for F-actin. Confocal images were acquired on an FV3000 microscope (Olympus Corp., Tokyo, Japan).

## FIHHIIGGLFSAGKAIHRLIRRRRR [TP4, synthesized Nile tilapia-derived antimicrobial peptide, Tilapia piscidin 4]
[1]; 3.35 µM
  relative ATP levels (cell viability): 0.580±0.061
[1]; 5.03 µM
  relative ATP levels (cell viability): 0.211±0.030
[1]; 6.71 µM, listed as WT
  relative ATP levels (cell viability): 0.129±0.034
[1]; 6.71 µM, listed as wild-type TP4, 6.71 µM
  relative ATP levels (cell viability): 0.130 ± 0.036
[1]; 20.12 µM, listed as WT
  relative ATP levels (cell viability): 0.009±0.010
[1]; 20.12 µM, listed as wild-type TP4, 20.12 µM
  relative ATP levels (cell viability): 0.010 ± 0.010
[1]; doses 3.35-20.12 µM, ATP assay, Figure 6A
  cytotoxicity to A549 cells (in words): obvious dose-dependent cytotoxic effects
[2]; 10 μg mL^−1 peptide, dynamic measurement, Figure 5B
  effect on microtubule polymerization: sufficient to disrupt microtubule polymerization
[2]; 20 μg mL^−1 peptide, compared to controls, Figure 5C
  effect on microtubule polymerization: completely inhibited microtubule polymerization
